Data on ten compounds can be found in publication PMC9496346, “Controversial Role of Transferrin in the Transport of Ruthenium Anticancer Drugs” (Biomolecules, 2022).

Marks after values point to notes of the source that are not given here.

In data set [1] the test system is T1, recombinant human transferrin receptor 1 (TfR1).
T1 construct: extracellular domain (Cyst89-Phe760), (His)6-tagged at the N-terminus; purchased Sino Biological, Beijing, China (TfR1); Sigma (human serum, Cat. No. H4522, as source of Tf) 11020-H07H
In words: BLI of Tf–TfR1 binding in dilute human serum pre-treated with metal complexes. As to conditions: serum incubated with 100 μM Ru complex or 60 μM Fe(III) as citrate. Here is the method:
The effects of Ru complexes on the Tf cycle were determined by BLI using previously developed protocols. The instrument used was a single-channel BLItz analyser (ForteBio, Menlo Park, CA, USA) with a tube holder (250 µL solution volume) and Ni(II)–nta coated optical probes held at 295 ± 1 K. Measurements used the Advanced Kinetics mode. […] Solutions of metal–Tf adducts (typical final Tf concentrations 150 nM or 1.0 µM) were prepared in the binding buffer (Section 2.1). The pH 7.4 binding buffer was used for Tf binding and dissociation from the probe, and the pH 5.6 buffer (Section 2.1) was used to mimic the endosomal step of the Tf cycle. Metal–Tf solutions (A1–A9 in Table 1) were diluted 100–400-fold, cell culture media were diluted 30-fold, and human serum samples were diluted 200-fold with the binding buffer immediately before the BLI measurements. All BLI data were background corrected by using data from buffer only runs with the same TfR1-loaded optical probe. Consistent BLI results were obtained in at least two independent measurements, using different probes and different batches of Tf solutions. Calculations of the Tf–TfR1 binding constants were performed using the 1:1 binding model (BLItz software, Version 1.1, Forte-Bio 2013), which can be used as a reasonable approximation of the physiological 2:2 Tf–TfR1 binding mechanism at low Tf concentrations. […]
(b) BLI response curves for dilute human serum samples in the presence or absence of metal complexes. Intact commercial human serum (Sigma H4522) was incubated with Fe(III)-citrate (60 µM) or with Ru complexes (100 µM) for 4 h at 310 K, then diluted 200-fold (to [Tf] ~ 150 nM) with the binding buffer (20 mM HEPES, 25 mM NaHCO3, 140 mM NaCl, pH = 7.4), and analyzed with the TfR1-loaded BLI probe. Designations of the steps in Tf cycle (A–D) correspond to those in Figure 1d-f, main text. Calculated KD values (1:1 binding model, BLItz software) were as follows: 8.0 nM (serum + Fe(III) citrate); or 28 ± 2 nM (serum in the presence or absence of Ru complexes). Typical anticancer Ru complexes, NAMI-A, KP1019 and RAPTA-C, were synthesized and characterized previously in the Lay group.
(1 picture or pasted object on this page, not shown here)

In data set [2] the test system is HepG2 cells. The data set can be described thus: Cellular Fe content of HepG2 cells (ICP-MS). As to conditions: HepG2, 24 h; 60 μM Ru, added HSA or Tf 30 μM; serum-free DMEM with ~15 μM BSA. In kind it is cell-based, human. Here is the method: (§1) Human hepatoma (HepG2) cells were originally received from the American Type Culture Collection (ATCC, Cat. No. HB-8065) and cultured as described previously. This cell line was used for Tf-dependent metal uptake studies because of the high expression levels of human TfR1 [43]. For treatments, the cells were grown to confluence in 24-well plates, using Advanced DMEM (Dulbecco’s modified Eagle’s minimal essential medium, Invitrogen Cat. No. 12491-015), supplemented with L-glutamine (2.0 mM), antibiotic-antimycotic mixture (100 mg mL^−1 penicillin, 100 mg mL^−1 steptomycin and 0.25 mg mL^−1 amphotericin B) and fetal calf serum (heat-inactivated, 2% v/v). Confluent cell layers were washed with serum-free treatment medium (DMEM, Invitrogen Cat. No. 19938-025), supplemented with glutamine, antibiotic-antimycotic mixture and 1.0 mg mL^−1 AlbuMax (Gibco Cat. No. 11020-021). […] After washing, the wells were filled with the treatment medium containing metal additions (detailed in B1–B9 of Table 1). The treatment media were sterilized by filtration through 0.2 µm membrane filters, and pre-equilibrated for 24 h at 310 K and 5% CO2 prior to the addition to cells, except for sample B1 that was used immediately after preparation. All the treatments were performed in triplicate, using random well positions to avoid experimental bias.
(§2) After 24 h incubation with the treatment media (B1–B9 in Table 1), the medium from each well was collected for the determination of Ru–protein binding and BLI analyses, and the wells were washed twice with PBS (0.50 mL/well). […]
(§3) The values of metal uptake were normalized using protein content in cell lysates. For protein determination, Bradford reagent (Sigma Cat. No B6916; 98 µL) was mixed with a small aliquot (2.0 µL) of each cell lysate, and the absorbance at 600 nm was measured using a Victor V3 plate reader. […] The test and calibration samples were analyzed in triplicate. […]

Data set [3] has as its system HepG2 cells. In words: Cellular Ru uptake by HepG2 cells (ICP-MS). Format: cell-based, human. As to conditions: HepG2, 24 h; 60 μM Ru, added HSA or Tf 30 μM; serum-free DMEM with ~15 μM BSA; media pre-equilibrated 24 h except B1. As to the method: as §1, §2, §3
Data set [4] concerns protein in cell culture medium. The data set can be described thus: Ru–protein binding in cell culture medium (gel filtration, GFAAS). Format: in vitro ADME. As to conditions: medium after 24 h cell treatment; gel filtration >6 kDa; 60 μM Ru, added HSA or Tf 30 μM, ~15 μM BSA. As to the method: An aliquot (50 µL) of cell culture medium from each well was passed through a separate Bio-Rad P6 centrifugal gel filtration column that was pre-saturated with PBS, according to manufacturer’s instructions. The eluants (50 ± 5 µL volume) contained protein-bound Ru fractions (>6 kDa molecular mass). The protein recovery, measured by Bradford assays, exceeded 95%. Another 50 µL sample of each medium was taken into separate tubes. Both the original and gel-filtered media samples were digested with 0.20 mL of 65% (v/v) HNO3 for 24 h. The digests were diluted with 0.75 mL of 0.10 M HCl, and the Ru content in the samples was determined by GFAAS. The percentage of protein binding was determined from the ratio of Ru content in the gel-filtered and original media samples [30, 31].
(Size exclusion chromatography separates by hydrodynamic size, large species first.)

A short description of data set [5]: Particle size (protein aggregation) by dynamic light scattering. In kind it is physicochemical. The conditions noted are these: DLS, 298 K; 10 μM Tf in binding buffer pH 7.4. As to the method:
Protein samples (0.10 mM) were diluted 10-fold with binding buffer before the measurements. The measured parameters were the averages of 12–15 scans (scan time, 3 s). […] Analysis of Tf crystal structures that are available in the public domain from the Protein Data Bank (PDB) was performed with PyMOL software (version 2.1.1, Schrodinger LLC 2021, New York, NY, USA).

Data set [6] concerns T2, recombinant human transferrin receptor 1 (TfR1).
T2 construct: extracellular domain (Cyst89-Phe760), (His)6-tagged at the N-terminus; purchased Sino Biological, Beijing, China (TfR1)
The data set can be described thus: BLI of Tf–TfR1 binding in dilute cell culture media after uptake experiments. The conditions noted are these: 1.0 µM human Tf, 295 K; serum-free DMEM with 1.0 mg mL−1 BSA collected after HepG2 uptake experiments, diluted 30-fold; 1:1 binding model. As to the method:
The effects of Ru complexes on the Tf cycle were determined by BLI using previously developed protocols. The instrument used was a single-channel BLItz analyser (ForteBio, Menlo Park, CA, USA) with a tube holder (250 µL solution volume) and Ni(II)–nta coated optical probes held at 295 ± 1 K. Measurements used the Advanced Kinetics mode. […] Solutions of metal–Tf adducts (typical final Tf concentrations 150 nM or 1.0 µM) were prepared in the binding buffer (Section 2.1). The pH 7.4 binding buffer was used for Tf binding and dissociation from the probe, and the pH 5.6 buffer (Section 2.1) was used to mimic the endosomal step of the Tf cycle. Metal–Tf solutions (A1–A9 in Table 1) were diluted 100–400-fold, cell culture media were diluted 30-fold, and human serum samples were diluted 200-fold with the binding buffer immediately before the BLI measurements. All BLI data were background corrected by using data from buffer only runs with the same TfR1-loaded optical probe. Consistent BLI results were obtained in at least two independent measurements, using different probes and different batches of Tf solutions. Calculations of the Tf–TfR1 binding constants were performed using the 1:1 binding model (BLItz software, Version 1.1, Forte-Bio 2013), which can be used as a reasonable approximation of the physiological 2:2 Tf–TfR1 binding mechanism at low Tf concentrations.
(a) BLI response curves for 1.0 µM of human Tf at 295 K in dilute cell culture media after Ru uptake experiments by HepG2 cells (Section 3.2 in the main text). Media (serum-free DMEM, containing 1.0 mg mL−1 BSA as a background protein, as well as KP1019 and/or Tf, as shown in the figure legend), were collected after the end of uptake experiments, then were diluted 30-fold with buffer (20 mM HEPES + 25 mM NaHCO3 + 140 mM NaCl, pH = 7.4) and applied to TfR1-loaded BLI probe. Designations of the steps in Tf cycle (A–D) correspond to those in Figure 1d-f, main text. Calculated KD values (1:1 binding model, BLItz software) were as […]

For data set [7], the system named is HepG2 cells. In words: Toxicity to HepG2 cells judged from cell morphology during treatment. In kind it is cell-based, human. The conditions noted are these: HepG2, 24 h incubation, 60 μM Ru. As to the method: as §1, with “All the treatments were performed in triplicate, using random well positions to avoid experimental bias.” left out
Cellular Fe levels were also measured to control the Tf-mediated Fe uptake. […]

On to Fe(III) citrate, for which the “Effect on Tf–TfR1 binding in whole human serum” value (“Effect on Tf–TfR1 binding” for short) in data set [1] is listed as “significantly increased the binding affinity”.

As for `O=C([O-])CN(CC(=O)[O-])CC(=O)[O-].O=C([O-])CN(CC(=O)[O-])CC(=O)[O-].[Ru+3]` [[Ru(nta)2]^3−, [Ru^III(nta)2]^3−], in the data set on HepG2 cells [2], the “Fe Content (cellular metal content)” value amounted to 1.4 ± 0.4 nmol per mg protein. Further, the “Ru Uptake (cellular metal content)” value in the data set with HepG2 cells [3] is 0.09 ± 0.03 nmol per mg protein. Also, the “% Ru–Protein (proportion of protein-bound Ru in cell culture medium)” value in data set [4] is reported as 2 ± 1 ^g molar %. Consider `CS(C)=O.[Cl-].[Cl-].[Cl-].[Cl-].[Ru+3].c1c[nH+]c[nH]1.c1c[nH]cn1` [NAMI-A, (ImH)[Ru^IIICl4(Im)(S-dmso)]], for which the “Effect on Tf–TfR1 binding” value in data set [1] is listed as “did not have any effect”. In the case of “monoFeTf: apoTf + 1.0 eq. [Fe^III(nta)2]^3−; mixture of FeCTf and FeNTf forms”, the “Mean Particle Size” value in data set [5] amounted to 7 ± 1 nm.

Broadly, the Kd is the constant that tells how readily two partners part at equilibrium. Regarding “Fe2Tf: fully Fe(III)-saturated human transferrin”, the Kd in data set [6] worked out at 22 nM. Also, the “Mean Particle Size” value in data set [5] was 7 ± 2 nm. For the compound “Ru2Tf: apoTf + 2.0 eq. [Ru^III(nta)2]^3−; Ru(III) bound to Fe(III) sites of transferrin”, in the data set with HepG2 cells [2], the “Fe Content (cellular metal content)” value is listed as 1.9 ± 0.7 nmol per mg protein. Moreover, the “% Ru–Protein (proportion of protein-bound Ru in cell culture medium)” value in data set [4] was 74 ± 3 ^g molar %. The “Mean Particle Size” value in data set [5] is 7 ± 1 nm. For the compound `Cc1ccc(C(C)C)cc1.[Cl][Ru]([Cl])[PH]12CN3CN(CN(C3)C1)C2` [RAPTA-C, [Ru^II(η^6-p-cymene)Cl2(pta)]], the “Effect on Tf–TfR1 binding” value in data set [1] was “did not have any effect”. As to “RuFeTf: apoTf + 1.0 eq. [Fe^III(nta)2]^3−, then 1.0 eq. [Ru^III(nta)2]^3−; mixed Ru(III)–Fe(III)–Tf adduct”, the “Mean Particle Size” value in data set [5] was 6.5 ± 1 nm.

Turning to `[Cl-].[Cl-].[Cl-].[Cl-].[Ru+3].c1ccc2[nH+][nH]cc2c1.c1ccc2[nH]ncc2c1.c1ccc2[nH]ncc2c1` [KP1019 fresh], the “Fe Content (cellular metal content)” value in the data set on HepG2 cells [2] is 11.2 ± 6.5 ^f nmol per mg protein. Moreover, in the data set on HepG2 cells [3], the “Ru Uptake (cellular metal content)” value is on record as 6.6 ± 2.8 ^e nmol per mg protein. In addition, the “% Ru–Protein (proportion of protein-bound Ru in cell culture medium)” value in data set [4] turned out to be 46 ± 4 molar %. In addition, the “Toxicity judged from cell morphology” value in the data set with HepG2 cells [7] is reported as “significant cell detachment”. Take apoTf: human apo transferrin: in data set [6], the equilibrium dissociation constant (Kd) turned out to be 32 nM. Also, in data set [5], the “Mean Particle Size” value was 7 ± 1 nm.
